Results on 1 compound are retold here after US5420158A, “Naphthylalkylamines” (Adir et Compagnie, priority 1992, dated 1995).

Molecules are shown by their SMILES.

This test relates to Xenopus melanophores. The test can be described thus: Melatonin-antagonist activity with respect to pigment aggregation. Format: cell-based, Xenopus laevis. Conditions: compound at 10^-7 M, melatonin 10^-8 M. The method, then: Melatonin is known to participate in regulation of the skin color of amphibians such as Xenopus (Xenopus laevis). It causes condensation of the […] granules in the melanophores of the dermis (Sugden D. European Journal of Pharmacology, vol. 213, pp: 405-408 (1992)).
The compounds of the invention were tested for their capacity to inhibit the effect of melatonin on Xenopus melanophores.
(According to the method described in Sugden D. Br. J. Pharmacol. vol. 104, pp 922-927, (1991)).
The neural crest of Xenopus embryos is dissected and the cells are isolated. The melanophores which appear after 2-3 days of culture are rapidly visible among the other cells emanating from the neural crest. The melanophores are cultured in Leibovitz L-15 medium (Gibco) and diluted (1/1) with deionized water containing 10% of fetal calf serum, 200 IU/cm^3 of penicillin, 200 μg/cm^3 of streptomycin and 2.5 μg/cm^3 of amphotericin B.
The experiments on the melanophores are carried out between days 7 and 12 of the culture.
The response of the isolated melanophores to melatonin is quantified by measuring the pigmented area using a computer-assisted image analyzer. The test compounds are added to the culture medium 10 to 15 min before the measurement.

Take `O=C(NCCc1cccc2ccccc12)C1CCC1` [Example 1, N-[2-(1-naphthyl)ethyl]cyclobutanecarboxamide]: the “antagonism of the action of melatonin on pigment aggregation” value is recorded as “significantly antagonizes the action of melatonin”.
